Data set [1] concerns isolated heart of the rat. Briefly: Effects in the electrical activity (ECG) in isolated heart of the rat (Langendorff modified). The settings on record: for cardiac toxicity (cardiotoxicity) in relation to ropivacaine: conclusion from isolated rat heart. From the text:
In the experiments “in vitro”, adult male Wistar rats were used, weighing from 200 up to 350 g. The animals were slaughtered under anesthesia with ethyl ether. Thereafter, the heart was quickly removed and immersed, at room temperature, on Tyrode solution, composed in mM: NaCl, 120; KCl, 5.4; MgCl2, 1.2; CaCl2, 1.25; NaH2PO4, 2.0; NaHCO3, 27; Glucose, 11. The pH of this solution was adjusted to 7.4±0.02, under bubbling with carbogenic mixture (95% of O2 and 5% of CO2).
The heart was fixed, through the aorta, to a metallic tube and the latter was connected to a peristaltic pump (Milan^R). In order to maintain the feasibility of the preparation, the heart was perfused with a Tyrode solution at a flow of 8 ml.min^−1 maintained at 37° C. The drugs tested were diluted in the perfusion solution in the desired concentration. Thereafter, the heart was immersed in a recipient containing 150 ml of Tyrode solution maintained at 37° C. For registration of the ECG, three pipettes (electrodes), filled in with KCl 1M were positioned inside the chamber, the nearest possible to the heart. The electrical signals generated by the heart were amplified (Amplifier type 3A9) and registered in polygraph (Gould Brush mod.2400). After stabilization of the preparation, the experimental protocol with the infusion of ALs in crescent concentrations (0.1 a 10 μM), at intervals of 5 minutes between them, was started. The heart was perfused during 5 minutes for each concentration. Only one drug was tested for each heart.
The ECG was continuously registered in the absence (control) and in the presence of drugs for analysis. After the infusion of the last concentration, the preparation was washed during 30 minutes with the Tyrode solution without the AL, aiming to evaluate the reversibility of the effect of the drug.

Data set [2] has as its system Muscular Activity of the Gastrocnemic Muscle of the Rat. Briefly: Study in motor nervous conduction: gastrocnemius muscle shocks induced by electrical stimulation of the sciatic nerve. The following applies: for IC50 (%) - concentration that inhibits 50% of the amplitude of muscular shocks: 0.1 ml applied to sciatic nerve, stimulation 0.2 Hz, anesthetized Wistar rats; for Power relative to S (−) ropivacaine: from IC50 of gastrocnemic muscle shocks. It counts as in vivo. How it is done:
Wistar male rats, weighing from 180 up to 250 g were under anesthesia with sodium pentobarbital (50 mg.kg^1) via i.p. After being submitted to tracheotomy and mechanically ventilated (Harvad Apparatus mod. 681), the animals were positioned on a surgical table (C. F. Palmer), on ventral decubital, and the four paws were fixed onto the surgical table. In the posterior face and near the back paw, the sciatic nerve was carefully dissected on both paws. A pair of platinum electrodes was fixed on the portion near the nerve and connected to a stimulator Grass mod.S88. Thereafter, the Achilles tendon was isolated and fixed to the isometric tension transducer (Grass FT03) by means of a metallic rod. […] 7). The body temperature was constant during the experiment. After stabilization of the preparation, the muscular shocks were registered in the absence (salty) and in the presence of increasing doses of LAs added in the proximity of the nerve. For each test, the anesthetic that socked the nerve was of 0.1 ml. The solutions were solved in physiologic serum at 0.9%, currently the experiment is maintained at 37° C. temperature.
Particularly, in this register, ropivacaine (S(−)ropi) and the non-racemic mixture (25R:75S) were administered in the perineural region. It should be noted the difference in the power and speed action between the anesthetic. In this figure, gastrocnemic shocks of the muscle were induced by electrical stimulation of the sciatic nerve. The segment of this nerve situated in the distal portion to the stimulation electrodes was soaked with 0.1 ml ropivacaine or with the non-racemic mixture of ropivacaine […] in the concentration of 0.06%. The reduction of the amplitude of the muscular shocks is a function of the number of nervous motor fibers under effective action of the anesthetics.
The concentration that inhibits 50% of the amplitude of muscular shocks (IC50) seeks is used for comparative purposes of the power between anesthetics.

The conditions of data set [3]: spinal anesthesia; Gautier et al. 1999; cited from earlier work.
Where [4] appears, read: 0.1 to 10 μM, 6 experiments, FIG. 4.

Each structure is given as a SMILES string. Marks after values point to notes of the source that are not given here.

Regarding `CCCN1CCCCC1C(=O)Nc1c(C)cccc1C` (racemic) [RS (±) Ropi, (R,S)-N-(2,6-dimethylphenyl)-1-propyl-2-piperidinocarboxamide], in data set [1] (setting [4]), the “effect on CF (cardiac frequency)” value is given as “greater depressors effect of CF” and the “effect on PR interval” value is recorded as “increase in PR interval”. For the same compound, the “cardiac toxicity (cardiotoxicity) in relation to ropivacaine” value in data set [1] was “significantly higher cardiotoxicity”. In data set [2], the “IC50 (%) - concentration that inhibits 50% of the amplitude of muscular shocks” value was 0.036* % and the “Power relative to S (−) ropivacaine” value is on record as 1.94*. Besides, the “power (motor blocking) greater in comparison with ropivacaine” value in data set [2] (motor blocking, versus pure ropivacaine) is reported as around 90%.
For `CCCN1CCCC[C@@H]1C(=O)Nc1c(C)cccc1C` [R (+) Ropi, (R)-N-(2,6-dimethylphenyl)-1-propyl-2-piperidinocarboxamide], in data set [1] (setting [4]), the “effect on CF (cardiac frequency)” value was “greater depressors effect of CF” and the “effect on PR interval” value was “increase in PR interval”. Also, in data set [1], the “cardiac toxicity (cardiotoxicity) in relation to ropivacaine” value was “significantly higher cardiotoxicity”. In addition, the “effect on ECG of isolated heart” value in data set [1] (perfusion with 1 μM) was “important blocking of the cardiac vessel”. In data set [2], the “IC50 (%) - concentration that inhibits 50% of the amplitude of muscular shocks” value was 0.043* % and the “Power relative to S (−) ropivacaine” value is 1.63*.
Consider `CCCN1CCCC[C@H]1C(=O)Nc1c(C)cccc1C` [S (−) Ropi, (S)-N-(2,6-dimethylphenyl)-1-propyl-2-piperidinocarboxamide], for which the “effect on PR interval” value in data set [1] (even in the concentration of 10 μM) was “do not alter the PR interval”. In data set [2], the “IC50 (%) - concentration that inhibits 50% of the amplitude of muscular shocks” value stood at 0.070% and the “Power relative to S (−) ropivacaine” value turned out to be 1.0. In data set [3], the “less potent than racemic bupivacaine” value is reported as “about 50%”.
